# PubChem BioAssay AID2060625 (Molecular Pharmacology Branch, DTP, NCI, 2025)
# Tested on: 186277-243-T-J2-PDC spheroids with HUVEC/MSC, viability
# Assay: Anticancer human tumor 186277-243-T-J2-PDC patient-derived colon adenocarcinoma cell line growth inhibition [CLK]
# Conditions: for IC50: curve of first compound; for viability, T/C: stronger effect = lower value
# In short: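 Multi-cell-type spheroids combined patient-derived tumor cells with HUVEC endothelial cells and human mesenchymal stem cells. Paired agents were dosed in half-log steps down from about clinical Cmax, or from 10 microM where Cmax was unknown.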
# [1] = second compound 0.0316 µM, first compound 0.0316 µM
# [2] = second compound 0.0316 µM, first compound 0.1 µM
# [3] = second compound 0.0316 µM, first compound 0.316 µM
# [4] = second compound 0.0316 µM, first compound 1 µM
# [5] = second compound 0.0316 µM, first compound 3.16 µM
# [6] = second compound 0.0316 µM, first compound 10 µM
# [7] = second compound 0.1 µM, first compound 0.0316 µM
# [8] = second compound 0.1 µM, first compound 0.1 µM
# [9] = second compound 0.1 µM, first compound 0.316 µM
# [10] = second compound 0.1 µM, first compound 1 µM
# [11] = second compound 0.1 µM, first compound 3.16 µM
# [12] = second compound 0.1 µM, first compound 10 µM
# [13] = second compound 0.316 µM, first compound 0.0316 µM
# [14] = second compound 0.316 µM, first compound 0.1 µM
# [15] = second compound 0.316 µM, first compound 0.316 µM
# [16] = second compound 0.316 µM, first compound 1 µM
# [17] = second compound 0.316 µM, first compound 3.16 µM
# [18] = second compound 0.316 µM, first compound 10 µM
# [19] = second compound 1 µM, first compound 0.0316 µM
# [20] = second compound 1 µM, first compound 0.1 µM
# [21] = second compound 1 µM, first compound 0.316 µM
# [22] = second compound 1 µM, first compound 1 µM
# [23] = second compound 1 µM, first compound 3.16 µM
# [24] = second compound 1 µM, first compound 10 µM
# [25] = second compound 3.16 µM, first compound 0.0316 µM
# [26] = second compound 3.16 µM, first compound 0.1 µM
# [27] = second compound 3.16 µM, first compound 0.316 µM
# [28] = second compound 3.16 µM, first compound 1 µM
# [29] = second compound 3.16 µM, first compound 3.16 µM
# [30] = second compound 3.16 µM, first compound 10 µM
# [31] = second compound 10 µM, first compound 0.0316 µM
# [32] = second compound 10 µM, first compound 0.1 µM
# [33] = second compound 10 µM, first compound 0.316 µM
# [34] = second compound 10 µM, first compound 1 µM
# [35] = second compound 10 µM, first compound 3.16 µM
# [36] = second compound 10 µM, first compound 10 µM
# 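Note: compound exposure lasted seven days before readout.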
# 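Throughout, for viability, T/C: 100% = DMSO vehicle control wells.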
compound,measurement,setting,value
CC(=O)O[C@H]1C(=O)[C@@]2(C)[C@H]([C@H](OC(=O)c3ccccc3)[C@]3(O)C[C@H](OC(=O)[C@H](O)[C@@H](NC(=O)c4ccccc4)c4ccccc4)C(C)=C1C3(C)C)[C@]1(OC(C)=O)CO[C@@H]1C[C@@H]2O + CNC(=O)c1ccc(Nc2nc(OC3CCCC3)c3c(-c4ccc5nc(C)oc5c4)c[nH]c3n2)c(OC)c1,IC50,second compound 0.0316 µM,260 nM
same,IC50,second compound 0.1 µM,> 10000 nM
same,IC50,second compound 0.316 µM,< 31.6 nM
same,IC50,second compound 1 µM,< 31.6 nM
same,IC50,second compound 3.16 µM,< 31.6 nM
same,IC50,second compound 10 µM,< 31.6 nM
same,"viability, T/C",[1],73.2%
same,"viability, T/C",[2],73.2%
same,"viability, T/C",[3],45.2%
same,"viability, T/C",[4],26.3%
same,"viability, T/C",[5],27.7%
same,"viability, T/C",[6],59.1%
same,"viability, T/C",[7],64.4%
same,"viability, T/C",[8],85.1%
same,"viability, T/C",[9],128%
same,"viability, T/C",[10],142%
same,"viability, T/C",[11],156%
same,"viability, T/C",[12],166%
same,"viability, T/C",[13],40.4%
same,"viability, T/C",[14],64%
same,"viability, T/C",[15],96%
same,"viability, T/C",[16],105%
same,"viability, T/C",[17],110%
same,"viability, T/C",[18],94.6%
same,"viability, T/C",[19],31.5%
same,"viability, T/C",[20],44.1%
same,"viability, T/C",[21],53.2%
same,"viability, T/C",[22],53.3%
same,"viability, T/C",[23],61%
same,"viability, T/C",[24],65.5%
same,"viability, T/C",[25],32.4%
same,"viability, T/C",[26],44.6%
same,"viability, T/C",[27],40.2%
same,"viability, T/C",[28],48.4%
same,"viability, T/C",[29],44.7%
same,"viability, T/C",[30],50%
same,"viability, T/C",[31],30.1%
same,"viability, T/C",[32],36.4%
same,"viability, T/C",[33],41%
same,"viability, T/C",[34],39.5%
same,"viability, T/C",[35],45.2%
same,"viability, T/C",[36],47.6%
CCc1c2c(nc3ccc(O)cc13)-c1cc3c(c(=O)n1C2)COC(=O)[C@]3(O)CC + CNC(=O)c1ccc(Nc2nc(OC3CCCC3)c3c(-c4ccc5nc(C)oc5c4)c[nH]c3n2)c(OC)c1,IC50,second compound 0.0316 µM,24.4 nM
same,IC50,second compound 0.1 µM,22.3 nM
same,IC50,second compound 0.316 µM,11.5 nM
same,IC50,second compound 1 µM,< 3.16 nM
same,IC50,second compound 3.16 µM,< 3.16 nM
same,IC50,second compound 10 µM,< 3.16 nM
same,"viability, T/C","second compound 0.0316 µM, first compound 0.00316 µM",101%
same,"viability, T/C","second compound 0.0316 µM, first compound 0.01 µM",73.3%
same,"viability, T/C",[1],43.3%
same,"viability, T/C",[2],23.4%
same,"viability, T/C",[3],16.7%
same,"viability, T/C",[4],11.2%
same,"viability, T/C","second compound 0.1 µM, first compound 0.00316 µM",77.8%
same,"viability, T/C","second compound 0.1 µM, first compound 0.01 µM",71%
same,"viability, T/C",[7],40.5%
same,"viability, T/C",[8],19.2%
same,"viability, T/C",[9],16.6%
same,"viability, T/C",[10],10.3%
same,"viability, T/C","second compound 0.316 µM, first compound 0.00316 µM",64.4%
same,"viability, T/C","second compound 0.316 µM, first compound 0.01 µM",54%
same,"viability, T/C",[13],21%
same,"viability, T/C",[14],12.9%
same,"viability, T/C",[15],12.4%
same,"viability, T/C",[16],7.31%
same,"viability, T/C","second compound 1 µM, first compound 0.00316 µM",47.3%
same,"viability, T/C","second compound 1 µM, first compound 0.01 µM",31.8%
same,"viability, T/C",[19],12.8%
same,"viability, T/C",[20],8.64%
same,"viability, T/C",[21],5.93%
same,"viability, T/C",[22],4%
same,"viability, T/C","second compound 3.16 µM, first compound 0.00316 µM",43.4%
same,"viability, T/C","second compound 3.16 µM, first compound 0.01 µM",23.8%
same,"viability, T/C",[25],8.87%
same,"viability, T/C",[26],10.9%
same,"viability, T/C",[27],6.99%
same,"viability, T/C",[28],3.82%
same,"viability, T/C","second compound 10 µM, first compound 0.00316 µM",40.6%
same,"viability, T/C","second compound 10 µM, first compound 0.01 µM",24%
same,"viability, T/C",[31],10.3%
same,"viability, T/C",[32],6.46%
same,"viability, T/C",[33],7.11%
same,"viability, T/C",[34],4.09%
COc1cccc2c1C(=O)c1c(O)c3c(c(O)c1C2=O)CC(O)(C(=O)CO)CC3OC1CC(N)C(O)C(C)O1 (stereo unspecified) + CNC(=O)c1ccc(Nc2nc(OC3CCCC3)c3c(-c4ccc5nc(C)oc5c4)c[nH]c3n2)c(OC)c1,IC50,second compound 0.0316 µM,161 nM
same,IC50,second compound 0.1 µM,138 nM
same,IC50,second compound 0.316 µM,66 nM
same,IC50,second compound 1 µM,< 31.6 nM
same,IC50,second compound 3.16 µM,< 31.6 nM
same,IC50,second compound 10 µM,< 31.6 nM
same,"viability, T/C",[1],112%
same,"viability, T/C",[2],73.5%
same,"viability, T/C",[3],17.3%
same,"viability, T/C",[4],0.3%
same,"viability, T/C",[5],3.88%
same,"viability, T/C",[6],1.97%
same,"viability, T/C",[7],72.2%
same,"viability, T/C",[8],64.4%
same,"viability, T/C",[9],13%
same,"viability, T/C",[10],0.2%
same,"viability, T/C",[11],1.92%
same,"viability, T/C",[12],4.82%
same,"viability, T/C",[13],52.4%
same,"viability, T/C",[14],48.7%
same,"viability, T/C",[15],10.6%
same,"viability, T/C",[16],1.25%
same,"viability, T/C",[17],2.88%
same,"viability, T/C",[18],1.07%
same,"viability, T/C",[19],40.7%
same,"viability, T/C",[20],27.5%
same,"viability, T/C",[21],3.75%
same,"viability, T/C",[22],2.42%
same,"viability, T/C",[23],6.62%
same,"viability, T/C",[24],3.37%
same,"viability, T/C",[25],34.2%
same,"viability, T/C",[26],19.9%
same,"viability, T/C",[27],3.14%
same,"viability, T/C",[28],2.25%
same,"viability, T/C",[29],1.39%
same,"viability, T/C",[30],1.97%
same,"viability, T/C",[31],34.8%
same,"viability, T/C",[32],16.9%
same,"viability, T/C",[33],4.4%
same,"viability, T/C",[34],2.28%
same,"viability, T/C",[35],3.08%
same,"viability, T/C",[36],3.22%
